The test system of series [1] is promastigotes L. braziliensis/ L. amazonensis. Put plainly: in vitro anti-Leishmania activity, promastigotes (Table 1S). It counts as cell-based. The settings on record: read-out: IC50 ± %SD (µM) promastigotes L. braziliensis/ L. amazonensis.
The test system of series [2] is L. infantum (MHOM/BR/2002/LPC-RPV) promastigotes. The series can be described thus: in vitro anti-Leishmania activity, promastigotes, resazurin. It is filed as cell-based, Leishmania infantum. Background: The colour change of resazurin is a common sign of viable cells or microbes.
Series [3] has as its system L. amazonensis (promastigotes). The series is described as above. It counts as cell-based. Particulars: maximum dose tested 25 µM, read-out: IC50 ± %SD (µM) L. amazonensis.
The subject of series [4] is T. cruzi epimastigotes, Tulahuen 2 strain (genotype TcVI). The series can be described thus: in vitro anti-T. cruzi activity, epimastigote growth (absorbance 600 nm). It is filed as cell-based, Trypanosoma cruzi. The method, then: Control parasites were cultivated in 0.4% DMSO. Each concentration of the compound was evaluated in duplicate.
In series [5] the test system is L. infantum .uy (parasites isolated from two dogs in the first Leishmaniasis outbreak in Uruguay). Put plainly: in vitro activity against L. infantum isolated from dogs in Uruguay. It counts as cell-based, Leishmania infantum. The settings on record: for IC50: Leishmania infantum, read-out: IC50 ± %SD (µM) L. infantum .uy. The method, then: Compounds were dissolved in dimethylsulfoxide (DMSO).
For assessing the amastigote form of all Leishmania strains were cultured in the RPMI described above. Parasites were seeded at 1 × 10^6 cells/mL and at each time point counted at least five times to obtain a growth curve. […] Control conditions of parasites without drug (100% growth) and medium without parasites were included. After 72 h at 28 °C parasite viability was determined by the resazurin method described. Infection with L. infantum. THP-1 monocytes (ATCC®TIB-202™) were grown following ATCC recommendations and seeded at 30,000 cells/well onto 18-mm round glass coverslips in 12 wells. For stimulation cells were incubated with 100 nM of PMA for 48 h, PMA was washed and cells left with growth media for 24 h more after incubation with parasites. 30,000 parasites/well were added and left to interact. After 48 h, coverslips were washed with PBS, fixed with 95% (v/v) ethanol, and stained with Fluoroshield™ with DAPI (Sigma). Infectivity was assessed considering invasion and replication capacity counting infected cells and parasites per infected cell, respectively. Infectivity index calculation = (% of infected cells X (amastigotes per cell))/number of total counted cells. Image acquisition was made with a Leica TCS-SP5 laser scanning confocal microscope (Leica Microsystems GmbH, Wetzlar, Germany) using the LASAF v.2 software (Leica Microsystems, Wetzlar, Germany) and observed using a 356 nm laser excitation line and an emission bandwidth from 461 nm under a 20× water immersion objective. Further image analysis, including quantitation and processing of figures were made using Fiji (http://fiji.sc/).

Series [6] has as its system J774.1 murine macrophages. The series can be described thus: nonspecific cytotoxicity on mammalian cells, MTT. It counts as cell-based. Particulars: for IC50: Mus musculus, J774.1, 48 h, MTT, read-out: IC50 ± SD (µM) Murine Macrophages; for SI J774.1/T. cruzi: ratio IC50 murine macrophages / IC50 T. cruzi epimastigotes.
Setting [7] is: Leishmania infantum, promastigotes, maximum dose tested 25 µM, read-out: IC50 ± %SD (µM) L. infantum.
Where [8] appears, read: Trypanosoma cruzi, TULAHUEN, epimastigotes, maximum dose tested 25 µM, read-out: IC50 ± %SD (µM) T. cruzi.
Where [9] appears, read: parasites isolated from two dogs in Uruguay, maximum dose tested 25 µM.

Each structure is given as a SMILES string. Read-outs that look alike come from different tables or passages of the source.

Regarding `C[C@]12CC[C@H]3[C@@H](CC=C4CC(O)CC[C@@]43C)[C@@H]1CC[C@@H]2C(=O)/C=C/c1cccnc1Br` (some centres unmarked) [Compound 1], the melting point (usually the temperature, or range, at which the solid turns liquid) was in the range of 193 to 195 °C. In series [1], the IC50 was over 25 µM. The IC50 in series [2] (setting [7]) is over 25 µM. In series [3], the IC50 is over 25 µM. Moreover, the IC50 in series [4] (setting [8]) is over 25 µM. The IC50 in series [5] was over 25 µM.

Take `C[C@]12CC[C@H]3[C@@H](CC=C4CC(O)CC[C@@]43C)[C@@H]1CC[C@@H]2C(=O)/C=C/c1ccc(Cl)cc1` (stereo partly drawn) [Compound 3, (2E)-3-(4-Chlorophenyl)-1-((10R,13S)-2,3,4,7,8,9,10,11,12,13,14,15,16,17-tetradecahydro-3(β)-hydroxy-10,13-dimethyl-1H-cyclo-penta[a]phenanthren-17(β)-yl)prop-2-en-1-one]: the melting point was 159 to 161 °C. Further, the IC50 in series [1] is over 25 µM. Besides, the IC50 in series [2] (setting [7]) is over 25 µM. For the same molecule, the IC50 in series [3] was over 25 µM. In addition, the IC50 in series [4] (setting [8]) is over 25 µM. Besides, the IC50 in series [5] was over 25 µM.

In turn, `C[C@]12CC[C@H]3[C@@H](CC=C4CC(O)CC[C@@]43C)[C@@H]1CC[C@@H]2C(=O)/C=C/c1cccc(Br)c1` (some centres unmarked) [Compound 4] displayed a melting point of 159 to 161 °C. For the same molecule, the IC50 in series [1] was over 25 µM. The “activity against Leishmania infantum from Fiocruz collection, in words” value in series [2] was “active”. Moreover, the IC50 in series [2] (setting [7]) was over 25 µM. Besides, the IC50 in series [3] is over 25 µM. Also, the IC50 in series [4] (setting [8]) turned out to be 20 ± 5 µM. In series [5], the “active against the strains isolated from Uruguayan dogs, in words” value is recorded as “not” and the IC50 is over 25 µM.

In the case of `C[C@]12CC[C@H]3[C@@H](CC=C4CC(O)CC[C@@]43C)[C@@H]1CC[C@@H]2C(=O)/C=C/c1ccccc1` (stereo partly drawn) [Compound 5, (2E)-1-((10R,13S)-2,3,4,7,8,9,10,11,12,13,14,15,16,17-tetradecahydro-3(β)-hydroxy-10,13-dimethyl-1H-cyclopenta[a]phenan-thren-17(β)-yl)-3-phenylprop-2-en-1-one], the IC50 in series [1], in series [2] (setting [7]), in series [3], in series [4] (setting [8]) and in series [5] was over 25 µM in each case.

As to `C[C@]12CC[C@H]3[C@@H](CC=C4CC(O)CC[C@@]43C)[C@@H]1CC[C@@H]2C(=O)/C=C/C=C/c1ccccc1` (stereo partly drawn) [Compound 6, (2E,4E)-1-((8S,9S,10R,13S,14S,17S)-3-hydroxy-10,13-dimethyl-2,3,4,7,8,9,10,11,12,13,14,15,16,17-tetradecahydro-1H-cyclopenta[a]phenanthren-17-yl)-5-phenylpenta-2,4-dien-1-one], the melting point lay within 116 to 119 °C. For the same molecule, the IC50 in series [1] was over 25 µM. Further, the IC50 in series [2] (setting [7]) is over 25 µM. The IC50 in series [3] was over 25 µM. Further, the IC50 in series [4] (setting [8]) is over 25 µM. Moreover, in series [5], the IC50 was over 25 µM.

`C[C@]12CC[C@H]3[C@@H](CC=C4CC(O)CC[C@@]43C)[C@@H]1CC[C@@H]2C(=O)/C=C/C=C/c1ccco1` (stereo partly drawn) [Compound 7, (2E,4E)-5-(furan-2-yl)-1-((8S,9S,10R,13S,14S,17S)-3-hydroxy-10,13-dimethyl-2,3,4,7,8,9,10,11,12,13,14,15,16,17-tetradecahydro-1H-cyclopenta[a]phenanthren-17-yl)penta-2,4-dien-1-one]: the melting point lay in the range of 100 to 103 °C. In addition, the IC50 in series [1] is over 25 µM. Besides, the IC50 in series [2] (setting [7]) was over 25 µM. The IC50 in series [3] is over 25 µM. For the same molecule, the IC50 in series [4] (setting [8]) is over 25 µM. The IC50 in series [5] is over 25 µM.

As to `C=CCn1c(C(=O)N2CCN(CC=Cc3ccccc3)CC2)cs/c1=N/N=C(/C)[C@@H]1CC[C@H]2[C@@H]3CC=C4CC(O)CC[C@]4(C)[C@H]3CC[C@]12C` (stereo partly drawn) [Compound 12, ((Z)-3-allyl-2-((E)-(1-((8S,9S,10R,13S,14S,17R)-3-hydroxy-10,13-dimethyl-2,3,4,7,8,9,10,11,12,13,14,15,16,17-tetradecahydro-1H-cyclopenta[a]phenanthren-17-yl)ethylidene)hydrazono)-2,3-dihydrothiazol-4-yl)(4-cinnamylpiperazin-1-yl)methanone], the IC50 in series [1], in series [2] (setting [7]), in series [4] (setting [8]) and in series [5] was over 25 µM each time.

Take `C/C(=N\Nc1nc(C(=O)N2CCN(C/C=C\c3ccccc3)CC2)cs1)[C@@H]1CC[C@H]2[C@@H]3CC=C4CC(O)CC[C@]4(C)[C@H]3CC[C@]12C` (stereo partly drawn) [Compound 13, (2-((E)-2-(1-((8S,9S,10R,13S,14S,17R)-3-hydroxy-10,13-dimethyl-2,3,4,7,8,9,10,11,12,13,14,15,16,17-tetradecahydro-1H-cyclopenta[a]phenanthren-17-yl)ethylidene)hydrazinyl)thiazol-4-yl)(4-((Z)-3-phenylallyl)piperazin-1-yl)methanone]: the IC50 in series [1], in series [2] (setting [7]), in series [4] (setting [8]) and in series [5] was over 25 µM each time.

Take `C=CCn1c(C(=O)NCC(=O)OCC)cs/c1=N/N=C(/C)[C@@H]1CC[C@H]2[C@@H]3CC=C4CC(O)CC[C@]4(C)[C@H]3CC[C@]12C` (stereo partly drawn) [Compound 14, Ethyl-2-((Z)-3-allyl-2-((E)-(1-((8S,9S,10R,13S,14S,17R)-3-hydroxy-10,13-dimethyl-2,3,4,7,8,9,10,11,12,13,14,15,16,17-tetradecahydro-1H-cyclopenta[a]phenanthren-17-yl)ethylidene)hydrazono)-2,3-dihydrothiazole-4-carboxamido)acetate]: the IC50 in series [1] is over 25 µM; in series [6], 100 ± 8 µM; in series [2] (setting [7]) it was over 25 µM; in series [4] (setting [8]), 8 ± 2 µM; in series [5], over 25 µM. For the same molecule, the “SI J774.1/T. cruzi” value in series [6] is 13. Besides, the “activity against Leishmania infantum from Fiocruz collection, in words” value in series [2] is listed as “active”. Further, in series [5], the “active against the strains isolated from Uruguayan dogs, in words” value was “not”.

For the molecule `C/C(=N/N=c1\[nH]c(C(=O)O)cs1)[C@@H]1CC[C@H]2[C@@H]3CC=C4CC(O)CC[C@]4(C)[C@H]3CC[C@]12C` (stereo partly drawn) [Compound 18, (Z)-2-((E)-(1-((8S,9S,10R,13S,14S,17R)-3-hydroxy-10,13-dimethyl-2,3,4,7,8,9,10,11,12,13,14,15,16,17-tetradecahydro-1H-cyclopenta[a]phenanthren-17-yl)ethylidene)hydrazono)-2,3-dihydrothiazole-4-carboxylic acid], the melting point was 281 to 283 °C.

Molecule `C=CCn1c(C(=O)O)cs/c1=N/N=C(/C)[C@@H]1CC[C@H]2[C@@H]3CC=C4CC(O)CC[C@]4(C)[C@H]3CC[C@]12C` (stereo partly drawn) [Compound 19, (Z)-3-allyl-2-((E)-(1-((8S,9S,10R,13S,14S,17R)-3-hydroxy-10,13-dimethyl-2,3,4,7,8,9,10,11,12,13,14,15,16,17-tetradecahydro-1H-cyclopenta[a]phenanthren-17-yl)ethylidene)hydrazono)-2,3-dihydrothiazole-4-carboxylic acid] displayed a melting point of 145 to 149 °C.

On to `C=CCn1c(-c2ccc(Cl)cc2)csc1=NN=C(C)[C@H]1CC[C@H]2[C@@H]3CC=C4C[C@@H](O)CC[C@]4(C)[C@H]3CC[C@]12C` [Compound 20, 1-(3β-Hydroxy-pregn-5-ene-20E-ylidene)-2-(3-allyl-4-(4-chloro-pheny)thiazol-2(3H)-ylidene)azine], for which the IC50 in series [1] is over 25 µM; in series [2] (Table 1S, read-out: IC50 ± %SD (µM) promastigotes L. infantum), over 25 µM; in series [4] (Table 1S, read-out: IC50 ± %SD (µM) epimastigotes T. cruzi) it was over 25 µM.

As to `CCCCCCCCCCCCCCCCOP(=O)([O-])OCC[N+](C)(C)C` [Miltefosine, reference compound], the IC50 was 50 ± 7 µM in series [6], 0.9 ± 0.2 µM in series [2] (setting [7]), 8 ± 2 µM in series [4] (setting [8]) and 5 ± 2 µM in series [5] (setting [9]). Moreover, the “SI J774.1/L. infantum” value in series [6] (ratio IC50 murine macrophages / IC50 L. infantum promastigotes) was 56. For the same molecule, the “SI J774.1/T. cruzi” value in series [6] is given as 6.

As for `CC1CS(=O)(=O)CCN1/N=C/c1ccc([N+](=O)[O-])o1` (centres unmarked) [Nifurtimox, reference compound], the figures for the IC50 in series [2] (setting [7]), in series [4] (setting [8]) and in series [5] (setting [9]) were 6 ± 2 µM, 7 ± 2 µM and 10 ± 2 µM, respectively.

Consider `CC(=O)[C@H]1CC[C@H]2[C@@H]3CC=C4C[C@@H](O)CC[C@]4(C)[C@H]3CC[C@]12C` [Pregnenolone, 3β-hydroxyl-5-pregnen-20-one, reference compound], for which the IC50 in series [2] (setting [7]), in series [3], in series [4] (setting [8]) and in series [5] (setting [9]) was over 25 µM in each case.

The record behind these values is article PMC6832524, “A Nature-Inspired Design Yields a New Class of Steroids Against Trypanosomatids” (Molecules, 2019).
